Laboratory results published in ChEMBL document CHEMBL3885881, “DrugMatrix”.

Organism: Rattus norvegicus
Assay: DrugMatrix - Regimen: Daily Repeat
Type: toxicity, organism-based, Sprague-Dawley
Design: regimen Daily Repeat, gender Male, age 6-8 weeks
Details: in vivo, iv, vehicle 100 % SALINE; for ABSOLUTE BASOPHIL / ABSOLUTE EOSINOPHIL / ABSOLUTE LYMPHOCYTE / ABSOLUTE MONOCYTE / ABSOLUTE SEGMENTED NEUTROPHIL / BASOPHIL / EOSINOPHIL / ERYTHROCYTE COUNT / HEMATOCRIT / HEMOGLOBIN / LEUKOCYTE COUNT / LYMPHOCYTE / MEAN CORPUSCULAR HEMOGLOBIN / MEAN CORPUSCULAR HEMOGLOBIN CONCENTRATION / MEAN CORPUSCULAR VOLUME / MONOCYTE / NEUTROPHIL / NUCLEATED RED BLOOD CELLS / PLATELET COUNT: tissue Blood; for ALANINE AMINOTRANSFERASE / ALBUMIN / ALKALINE PHOSPHATASE / ASPARTATE AMINOTRANSFERASE / BLOOD UREA NITROGEN / CARBON DIOXIDE / CHLORIDE / CHOLESTEROL / CREATINE PHOSPHOKINASE / CREATININE / GLUCOSE / LACTATE DEHYDROGENASE / LIPASE / PHOSPHORUS / POTASSIUM / SODIUM / TOTAL BILIRUBIN / TOTAL PROTEIN / URIC ACID: tissue Plasma
[1] = 0 mg/kg, 72 h, dose level Control, time 3 day
[2] = 0 mg/kg, 120 h, dose level Control, time 5 day
[3] = […], 72 h, dose 0.0033 mg/Kg, dose level Low, time 3 day
[4] = […], 72 h, dose 0.033 mg/Kg, dose level High, time 3 day

`COc1cc2c3cc1Oc1cc(ccc1O)C[C@@H]1c4c(cc(OC)c(O)c4Oc4ccc(cc4)C[C@@H]3N(C)CC2)CC[N+]1(C)C.[Cl-]` was tested, and the “ABSOLUTE BASOPHIL” value [1] was 0 CELLS/uL, the “ABSOLUTE EOSINOPHIL” value [1] was 0 CELLS/uL and the “ABSOLUTE LYMPHOCYTE” value [1] was 11636.83 CELLS/uL. The “ABSOLUTE MONOCYTE” value [1] was 159 CELLS/uL, the “ABSOLUTE SEGMENTED NEUTROPHIL” value [1] was 1170.83 CELLS/uL and the BASOPHIL [1] was 0%. For the same compound, the EOSINOPHIL [1] was 0%, the “ERYTHROCYTE COUNT” value [1] was 5.46 x10E6/uL and the HEMATOCRIT [1] was 34.05%. For the same compound, the HEMOGLOBIN [1] was 13.58 G/DL, the “LEUKOCYTE COUNT” value [1] was 12.97 x10E3/uL and the LYMPHOCYTE [1] was 89.67%. The “MEAN CORPUSCULAR HEMOGLOBIN” value [1] was 24.87 pg, the “MEAN CORPUSCULAR HEMOGLOBIN CONCENTRATION” value [1] was 39.9 G/DL and the “MEAN CORPUSCULAR VOLUME” value [1] was 62.3 fL. For the same compound, the MONOCYTE [1] was 1.33%, the NEUTROPHIL [1] was 9% and the “NUCLEATED RED BLOOD CELLS” value [1] was 0.17 /100WBC. For the same compound, the “PLATELET COUNT” value [1] was 824 x10E3/uL, the “ALANINE AMINOTRANSFERASE” value [1] was 64.83 u/L and the ALBUMIN [1] was 4.08 G/DL. The “ALKALINE PHOSPHATASE” value [1] was 421 u/L, the “ASPARTATE AMINOTRANSFERASE” value [1] was 116.83 u/L and the “BLOOD UREA NITROGEN” value [1] was 16.83 mg/dL. The “CARBON DIOXIDE” value [1] was 28 mmol/L, the CHLORIDE [1] was 101.33 MEQ/L and the CHOLESTEROL [1] was 74.17 mg/dL. For the same compound, the “CREATINE PHOSPHOKINASE” value [1] was 748.5 u/L, the CREATININE [1] was 0.22 mg/dL and the GLUCOSE [1] was 152.83 mg/dL. For the same compound, the “LACTATE DEHYDROGENASE” value [1] was 578.5 u/L, the LIPASE [1] was 9.83 u/L and the PHOSPHORUS [1] was 11.63 mg/dL. The POTASSIUM [1] was 5.93 MEQ/L, the SODIUM [1] was 142.1 MEQ/L and the “TOTAL BILIRUBIN” value [1] was 0.17 mg/dL. For the same compound, the “TOTAL PROTEIN” value [1] was 5.77 G/DL, the “URIC ACID” value [1] was 1.43 mg/dL and the “ABSOLUTE BASOPHIL” value [2] was 0 CELLS/uL. The “ABSOLUTE EOSINOPHIL” value [2] was 159.17 CELLS/uL, the “ABSOLUTE LYMPHOCYTE” value [2] was 12267.5 CELLS/uL and the “ABSOLUTE MONOCYTE” value [2] was 30 CELLS/uL. The “ABSOLUTE SEGMENTED NEUTROPHIL” value [2] was 1160 CELLS/uL, the BASOPHIL [2] was 0% and the EOSINOPHIL [2] was 1.17%. For the same compound, the “ERYTHROCYTE COUNT” value [2] was 5.52 x10E6/uL, the HEMATOCRIT [2] was 34.3% and the HEMOGLOBIN [2] was 13.73 G/DL. For the same compound, the “LEUKOCYTE COUNT” value [2] was 13.62 x10E3/uL, the LYMPHOCYTE [2] was 90.5% and the “MEAN CORPUSCULAR HEMOGLOBIN” value [2] was 24.92 pg. The “MEAN CORPUSCULAR HEMOGLOBIN CONCENTRATION” value [2] was 40.07 G/DL, the “MEAN CORPUSCULAR VOLUME” value [2] was 62.17 fL and the MONOCYTE [2] was 0.17%. For the same compound, the NEUTROPHIL [2] was 8.17%, the “NUCLEATED RED BLOOD CELLS” value [2] was 0.17 /100WBC and the “PLATELET COUNT” value [2] was 1261.83 x10E3/uL. The “ALANINE AMINOTRANSFERASE” value [2] was 58.67 u/L, the ALBUMIN [2] was 4.15 G/DL and the “ALKALINE PHOSPHATASE” value [2] was 364.67 u/L. For the same compound, the “ASPARTATE AMINOTRANSFERASE” value [2] was 105.33 u/L, the “BLOOD UREA NITROGEN” value [2] was 17.67 mg/dL and the “CARBON DIOXIDE” value [2] was 26.5 mmol/L. The CHLORIDE [2] was 101.67 MEQ/L, the CHOLESTEROL [2] was 63 mg/dL and the “CREATINE PHOSPHOKINASE” value [2] was 480.67 u/L. The CREATININE [2] was 0.17 mg/dL, the GLUCOSE [2] was 144.67 mg/dL and the “LACTATE DEHYDROGENASE” value [2] was 540.33 u/L. The LIPASE [2] was 10.33 u/L, the PHOSPHORUS [2] was 11.52 mg/dL and the POTASSIUM [2] was 6.12 MEQ/L. For the same compound, the SODIUM [2] was 142.45 MEQ/L, the “TOTAL BILIRUBIN” value [2] was 0.18 mg/dL and the “TOTAL PROTEIN” value [2] was 5.73 G/DL. The “URIC ACID” value [2] was 1.48 mg/dL, the “ABSOLUTE BASOPHIL” value [3] was 0 CELLS/uL and the “ABSOLUTE EOSINOPHIL” value [3] was 38.67 CELLS/uL. For the same compound, the “ABSOLUTE LYMPHOCYTE” value [3] was 9113.67 CELLS/uL, the “ABSOLUTE MONOCYTE” value [3] was 101 CELLS/uL and the “ABSOLUTE SEGMENTED NEUTROPHIL” value [3] was 846.67 CELLS/uL. The BASOPHIL [3] was 0%, the EOSINOPHIL [3] was 0.33% and the “ERYTHROCYTE COUNT” value [3] was 5.25 x10E6/uL. The HEMATOCRIT [3] was 31.97%, the HEMOGLOBIN [3] was 12.93 G/DL and the “LEUKOCYTE COUNT” value [3] was 10.1 x10E3/uL. For the same compound, the LYMPHOCYTE [3] was 90.33%, the “MEAN CORPUSCULAR HEMOGLOBIN” value [3] was 24.73 pg and the “MEAN CORPUSCULAR HEMOGLOBIN CONCENTRATION” value [3] was 40.53 G/DL. The “MEAN CORPUSCULAR VOLUME” value [3] was 60.97 fL, the MONOCYTE [3] was 1% and the NEUTROPHIL [3] was 8.33%. The “NUCLEATED RED BLOOD CELLS” value [3] was 0 /100WBC, the “PLATELET COUNT” value [3] was 798.67 x10E3/uL and the “ABSOLUTE BASOPHIL” value [4] was 0 CELLS/uL. For the same compound, the “ABSOLUTE EOSINOPHIL” value [4] was 61.33 CELLS/uL, the “ABSOLUTE LYMPHOCYTE” value [4] was 18023 CELLS/uL and the “ABSOLUTE MONOCYTE” value [4] was 62 CELLS/uL. The “ABSOLUTE SEGMENTED NEUTROPHIL” value [4] was 687 CELLS/uL, the BASOPHIL [4] was 0% and the EOSINOPHIL [4] was 0.33%. For the same compound, the “ERYTHROCYTE COUNT” value [4] was 5 x10E6/uL, the HEMATOCRIT [4] was 31.67% and the HEMOGLOBIN [4] was 13 G/DL. The “LEUKOCYTE COUNT” value [4] was 18.83 x10E3/uL, the LYMPHOCYTE [4] was 95.67% and the “MEAN CORPUSCULAR HEMOGLOBIN” value [4] was 26 pg. The “MEAN CORPUSCULAR HEMOGLOBIN CONCENTRATION” value [4] was 41.03 G/DL, the “MEAN CORPUSCULAR VOLUME” value [4] was 63.33 fL and the MONOCYTE [4] was 0.33%. The NEUTROPHIL [4] was 3.67%, the “NUCLEATED RED BLOOD CELLS” value [4] was 0 /100WBC and the “PLATELET COUNT” value [4] was 1148.67 x10E3/uL.
